The values that follow come from patent publication US8377931B2, “Benzoxazine derivatives and uses thereof” (Roche Palo Alto LLC, priority 2002, dated 2013).

Structures can show the parent of a compound that is named as a salt.

The compound `Cc1cc(N2CCNCC2)c2c(c1)N(S(=O)(=O)c1ccc(Cl)cc1)CCO2` (as salt: hydrochloride) gave a melting point of 147.9 to 152.9 °C.

`CS(=O)(=O)Nc1cccc(S(=O)(=O)N2CCOc3c(N4CCNCC4)cccc32)c1` [Compound 20, N-[3-(8-Piperazin-1-yl-2,3-dihydro-benzo[1,4]oxazine-4-sulfonyl)-phenyl]-methanesulfonamide]: the melting point was 158.5 to 163.5 °C.

`O=S(=O)(c1ccccc1)N1CCOc2c(N3CCNCC3)cc(Cl)cc21` (as salt: hydrochloride) yielded a melting point of 202 to 205 °C.
